# Source: patent US10792289B2 (Horizon Orphan LLC, priority 2009, dated 2020)
# Like-named read-outs stand apart in the source and are kept apart here.
# System: P. aeruginosa isolates
# Assay: Phase 2 study: MIC of P. aeruginosa isolates to levofloxacin
# Format: cell-based
# Conditions: Pseudomonas aeruginosa
# Procedure: Efficacy was evaluated by microbiologic assessment of sputum samples, time to need for anti-pseudomonal antimicrobials, the Cystic Fibrosis Questionaire-Revised (CFQ-R), and pulmonary function tests. […] Pair-wise comparisons between all the treatment arms were conducted as secondary analyses.
smiles,measurement,setting,value
"C[C@H]1COc2c(N3CCN(C)CC3)c(F)cc3c(=O)c(C(=O)O)cn1c23 [Levofloxacin, levofloxacin]",MIC50,"24 h, EE, 120 mg QD, Day 1, read-out: MIC50 (all organisms)",4 µg/mL
same,MIC90,"24 h, EE, 120 mg QD, Day 1, read-out: MIC90 (all organisms)",32 µg/mL
same,MIC50,"24 h, EE, 240 mg BID, Day 1, read-out: MIC50 (all organisms)",4 µg/mL
same,MIC90,"24 h, EE, 240 mg BID, Day 1, read-out: MIC90 (all organisms)",16 µg/mL
same,MIC50,"24 h, EE, 240 mg QD, Day 1, read-out: MIC50 (all organisms)",4 µg/mL
same,MIC90,"24 h, EE, 240 mg QD, Day 1, read-out: MIC90 (all organisms)",16 µg/mL
same,MIC50,"24 h, EE, combined 240 mg QD and BID, Day 1, read-out: MIC50 (all organisms)",4 µg/mL
same,MIC90,"24 h, EE, combined 240 mg QD and BID, Day 1, read-out: MIC90 (all organisms)",16 µg/mL
same,MIC50,"24 h, MITT, 120 mg QD, Day 1, read-out: Highest MIC, MIC50",8 µg/mL
same,MIC90,"24 h, MITT, 120 mg QD, Day 1, read-out: Highest MIC, MIC90",32 µg/mL
same,MIC50,"24 h, MITT, 120 mg QD, Day 1, read-out: MIC50 (all organisms)",4 µg/mL
same,MIC90,"24 h, MITT, 120 mg QD, Day 1, read-out: MIC90 (all organisms)",32 µg/mL
same,MIC50,"24 h, MITT, 240 mg BID, Day 1, read-out: Highest MIC, MIC50",6 µg/mL
same,MIC90,"24 h, MITT, 240 mg BID, Day 1, read-out: Highest MIC, MIC90",32 µg/mL
same,MIC50,"24 h, MITT, 240 mg BID, Day 1, read-out: MIC50 (all organisms)",4 µg/mL
same,MIC90,"24 h, MITT, 240 mg BID, Day 1, read-out: MIC90 (all organisms)",16 µg/mL
same,MIC50,"24 h, MITT, 240 mg QD, Day 1, read-out: Highest MIC, MIC50",4 µg/mL
same,MIC90,"24 h, MITT, 240 mg QD, Day 1, read-out: Highest MIC, MIC90",32 µg/mL
same,MIC50,"24 h, MITT, 240 mg QD, Day 1, read-out: MIC50 (all organisms)",4 µg/mL
same,MIC90,"24 h, MITT, 240 mg QD, Day 1, read-out: MIC90 (all organisms)",16 µg/mL
same,MIC50,"24 h, MITT, combined 240 mg QD and BID, Day 1, read-out: Highest MIC, MIC50",4 µg/mL
same,MIC90,"24 h, MITT, combined 240 mg QD and BID, Day 1, read-out: Highest MIC, MIC90",32 µg/mL
same,MIC50,"24 h, MITT, combined 240 mg QD and BID, Day 1, read-out: MIC50 (all organisms)",4 µg/mL
same,MIC90,"24 h, MITT, combined 240 mg QD and BID, Day 1, read-out: MIC90 (all organisms)",16 µg/mL
same,MIC50,"24 h, Table 14, EE, 120 mg QD, Day 1, read-out: MIC50 (all organisms)",8 µg/mL
same,MIC90,"24 h, Table 14, EE, 120 mg QD, Day 1, read-out: MIC90 (all organisms)",32 µg/mL
same,MIC50,"24 h, Table 14, EE, 240 mg BID, Day 1, read-out: MIC50 (all organisms)",6 µg/mL
same,MIC90,"24 h, Table 14, EE, 240 mg BID, Day 1, read-out: MIC90 (all organisms)",32 µg/mL
same,MIC50,"24 h, Table 14, EE, 240 mg QD, Day 1, read-out: MIC50 (all organisms)",4 µg/mL
same,MIC90,"24 h, Table 14, EE, 240 mg QD, Day 1, read-out: MIC90 (all organisms)",32 µg/mL
same,MIC50,"24 h, Table 14, EE, combined 240 mg QD and BID, Day 1, read-out: MIC50 (all organisms)",4 µg/mL
same,MIC90,"24 h, Table 14, EE, combined 240 mg QD and BID, Day 1, read-out: MIC90 (all organisms)",32 µg/mL
same,MIC50,"168 h, EE, 120 mg QD, Day 7, read-out: MIC50 (all organisms)",4 µg/mL
same,MIC90,"168 h, EE, 120 mg QD, Day 7, read-out: MIC90 (all organisms)",16 µg/mL
same,MIC50,"168 h, EE, 240 mg BID, Day 7, read-out: MIC50 (all organisms)",4 µg/mL
same,MIC90,"168 h, EE, 240 mg BID, Day 7, read-out: MIC90 (all organisms)",16 µg/mL
same,MIC50,"168 h, EE, 240 mg QD, Day 7, read-out: MIC50 (all organisms)",2 µg/mL
same,MIC90,"168 h, EE, 240 mg QD, Day 7, read-out: MIC90 (all organisms)",16 µg/mL
same,MIC50,"168 h, EE, combined 240 mg QD and BID, Day 7, read-out: MIC50 (all organisms)",4 µg/mL
same,MIC90,"168 h, EE, combined 240 mg QD and BID, Day 7, read-out: MIC90 (all organisms)",16 µg/mL
same,MIC50,"168 h, MITT, 120 mg QD, Day 7, read-out: Highest MIC, MIC50",8 µg/mL
same,MIC90,"168 h, MITT, 120 mg QD, Day 7, read-out: Highest MIC, MIC90",32 µg/mL
same,MIC50,"168 h, MITT, 120 mg QD, Day 7, read-out: MIC50 (all organisms)",4 µg/mL
same,MIC90,"168 h, MITT, 120 mg QD, Day 7, read-out: MIC90 (all organisms)",16 µg/mL
same,MIC50,"168 h, MITT, 240 mg BID, Day 7, read-out: Highest MIC, MIC50",6 µg/mL
same,MIC90,"168 h, MITT, 240 mg BID, Day 7, read-out: Highest MIC, MIC90",32 µg/mL
same,MIC50,"168 h, MITT, 240 mg BID, Day 7, read-out: MIC50 (all organisms)",4 µg/mL
same,MIC90,"168 h, MITT, 240 mg BID, Day 7, read-out: MIC90 (all organisms)",16 µg/mL
same,MIC50,"168 h, MITT, 240 mg QD, Day 7, read-out: Highest MIC, MIC50",4 µg/mL
same,MIC90,"168 h, MITT, 240 mg QD, Day 7, read-out: Highest MIC, MIC90",16 µg/mL
same,MIC50,"168 h, MITT, 240 mg QD, Day 7, read-out: MIC50 (all organisms)",4 µg/mL
same,MIC90,"168 h, MITT, 240 mg QD, Day 7, read-out: MIC90 (all organisms)",16 µg/mL
same,MIC50,"168 h, MITT, combined 240 mg QD and BID, Day 7, read-out: Highest MIC, MIC50",4 µg/mL
same,MIC90,"168 h, MITT, combined 240 mg QD and BID, Day 7, read-out: Highest MIC, MIC90",16 µg/mL
same,MIC50,"168 h, MITT, combined 240 mg QD and BID, Day 7, read-out: MIC50 (all organisms)",4 µg/mL
same,MIC90,"168 h, MITT, combined 240 mg QD and BID, Day 7, read-out: MIC90 (all organisms)",16 µg/mL
same,MIC50,"168 h, Table 14, EE, 120 mg QD, Day 7, read-out: MIC50 (all organisms)",8 µg/mL
same,MIC90,"168 h, Table 14, EE, 120 mg QD, Day 7, read-out: MIC90 (all organisms)",32 µg/mL
same,MIC50,"168 h, Table 14, EE, 240 mg BID, Day 7, read-out: MIC50 (all organisms)",4 µg/mL
same,MIC90,"168 h, Table 14, EE, 240 mg BID, Day 7, read-out: MIC90 (all organisms)",32 µg/mL
same,MIC50,"168 h, Table 14, EE, 240 mg QD, Day 7, read-out: MIC50 (all organisms)",4 µg/mL
same,MIC90,"168 h, Table 14, EE, 240 mg QD, Day 7, read-out: MIC90 (all organisms)",16 µg/mL
same,MIC90,"168 h, Table 14, EE, combined 240 mg QD and BID, Day 7, read-out: MIC90 (all organisms)",32 µg/mL
same,MIC,"168 h, read-out: Highest MIC to levofloxacin, mean (SD), MITT, 120 mg QD, Day 7",15.2 µg/mL
same,MIC,"168 h, read-out: Highest MIC to levofloxacin, mean (SD), MITT, 240 mg BID, Day 7",13 µg/mL
same,MIC,"168 h, read-out: Highest MIC to levofloxacin, mean (SD), MITT, 240 mg QD, Day 7",10.5 µg/mL
same,MIC,"168 h, read-out: Highest MIC to levofloxacin, mean (SD), MITT, combined 240 mg QD and BID, Day 7",11.8 µg/mL
same,MIC,"168 h, read-out: MIC to levofloxacin (all organisms), mean (SD), EE, 120 mg QD, Day 7",9.9 µg/mL
same,MIC,"168 h, read-out: MIC to levofloxacin (all organisms), mean (SD), EE, 240 mg BID, Day 7",8.8 µg/mL
same,MIC,"168 h, read-out: MIC to levofloxacin (all organisms), mean (SD), EE, 240 mg QD, Day 7",6.8 µg/mL
same,MIC,"168 h, read-out: MIC to levofloxacin (all organisms), mean (SD), EE, combined 240 mg QD and BID, Day 7",7.8 µg/mL
same,MIC,"168 h, read-out: MIC to levofloxacin (all organisms), mean (SD), MITT, 120 mg QD, Day 7",9.6 µg/mL
same,MIC,"168 h, read-out: MIC to levofloxacin (all organisms), mean (SD), MITT, 240 mg BID, Day 7",8.6 µg/mL
same,MIC,"168 h, read-out: MIC to levofloxacin (all organisms), mean (SD), MITT, 240 mg QD, Day 7",6.7 µg/mL
same,MIC,"168 h, read-out: MIC to levofloxacin (all organisms), mean (SD), MITT, combined 240 mg QD and BID, Day 7",7.6 µg/mL
same,MIC,"168 h, read-out: MIC to levofloxacin (all organisms), mean (SD), Table 14, EE, 120 mg QD, Day 7",15.7 µg/mL
same,MIC,"168 h, read-out: MIC to levofloxacin (all organisms), mean (SD), Table 14, EE, 240 mg BID, Day 7",13.1 µg/mL
same,MIC,"168 h, read-out: MIC to levofloxacin (all organisms), mean (SD), Table 14, EE, 240 mg QD, Day 7",10.9 µg/mL
same,MIC,"168 h, read-out: MIC to levofloxacin (all organisms), mean (SD), Table 14, EE, combined 240 mg QD and BID, Day 7",11.9 µg/mL
same,MIC50,"336 h, EE, 120 mg QD, Day 14, read-out: MIC50 (all organisms)",4 µg/mL
same,MIC90,"336 h, EE, 120 mg QD, Day 14, read-out: MIC90 (all organisms)",37 µg/mL
same,MIC50,"336 h, EE, 240 mg BID, Day 14, read-out: MIC50 (all organisms)",4 µg/mL
same,MIC90,"336 h, EE, 240 mg BID, Day 14, read-out: MIC90 (all organisms)",16 µg/mL
same,MIC50,"336 h, EE, 240 mg QD, Day 14, read-out: MIC50 (all organisms)",4 µg/mL
same,MIC90,"336 h, EE, 240 mg QD, Day 14, read-out: MIC90 (all organisms)",16 µg/mL
same,MIC50,"336 h, EE, combined 240 mg QD and BID, Day 14, read-out: MIC50 (all organisms)",4 µg/mL
same,MIC90,"336 h, EE, combined 240 mg QD and BID, Day 14, read-out: MIC90 (all organisms)",16 µg/mL
same,MIC50,"336 h, MITT, 120 mg QD, Day 14, read-out: Highest MIC, MIC50",8 µg/mL
same,MIC90,"336 h, MITT, 120 mg QD, Day 14, read-out: Highest MIC, MIC90",32 µg/mL
same,MIC50,"336 h, MITT, 120 mg QD, Day 14, read-out: MIC50 (all organisms)",6 µg/mL
same,MIC90,"336 h, MITT, 120 mg QD, Day 14, read-out: MIC90 (all organisms)",32 µg/mL
same,MIC50,"336 h, MITT, 240 mg BID, Day 14, read-out: Highest MIC, MIC50",6 µg/mL
same,MIC90,"336 h, MITT, 240 mg BID, Day 14, read-out: Highest MIC, MIC90",32 µg/mL
same,MIC50,"336 h, MITT, 240 mg BID, Day 14, read-out: MIC50 (all organisms)",4 µg/mL
same,MIC90,"336 h, MITT, 240 mg BID, Day 14, read-out: MIC90 (all organisms)",16 µg/mL
same,MIC50,"336 h, MITT, 240 mg QD, Day 14, read-out: Highest MIC, MIC50",8 µg/mL
same,MIC90,"336 h, MITT, 240 mg QD, Day 14, read-out: Highest MIC, MIC90",16 µg/mL
same,MIC50,"336 h, MITT, 240 mg QD, Day 14, read-out: MIC50 (all organisms)",4 µg/mL
same,MIC90,"336 h, MITT, 240 mg QD, Day 14, read-out: MIC90 (all organisms)",16 µg/mL
same,MIC50,"336 h, MITT, combined 240 mg QD and BID, Day 14, read-out: Highest MIC, MIC50",8 µg/mL
same,MIC90,"336 h, MITT, combined 240 mg QD and BID, Day 14, read-out: Highest MIC, MIC90",32 µg/mL
